How the values were obtained:
[1] = system: PBP2; settings: 2 mM EDTA
[2] = target: T1, PBP2D515N (Clostridioides difficile, UniProt A0A9R0CDX1, D515N); test: biochemical; type: binding
T1 sequence (A0A9R0CDX1 36-962 D515N): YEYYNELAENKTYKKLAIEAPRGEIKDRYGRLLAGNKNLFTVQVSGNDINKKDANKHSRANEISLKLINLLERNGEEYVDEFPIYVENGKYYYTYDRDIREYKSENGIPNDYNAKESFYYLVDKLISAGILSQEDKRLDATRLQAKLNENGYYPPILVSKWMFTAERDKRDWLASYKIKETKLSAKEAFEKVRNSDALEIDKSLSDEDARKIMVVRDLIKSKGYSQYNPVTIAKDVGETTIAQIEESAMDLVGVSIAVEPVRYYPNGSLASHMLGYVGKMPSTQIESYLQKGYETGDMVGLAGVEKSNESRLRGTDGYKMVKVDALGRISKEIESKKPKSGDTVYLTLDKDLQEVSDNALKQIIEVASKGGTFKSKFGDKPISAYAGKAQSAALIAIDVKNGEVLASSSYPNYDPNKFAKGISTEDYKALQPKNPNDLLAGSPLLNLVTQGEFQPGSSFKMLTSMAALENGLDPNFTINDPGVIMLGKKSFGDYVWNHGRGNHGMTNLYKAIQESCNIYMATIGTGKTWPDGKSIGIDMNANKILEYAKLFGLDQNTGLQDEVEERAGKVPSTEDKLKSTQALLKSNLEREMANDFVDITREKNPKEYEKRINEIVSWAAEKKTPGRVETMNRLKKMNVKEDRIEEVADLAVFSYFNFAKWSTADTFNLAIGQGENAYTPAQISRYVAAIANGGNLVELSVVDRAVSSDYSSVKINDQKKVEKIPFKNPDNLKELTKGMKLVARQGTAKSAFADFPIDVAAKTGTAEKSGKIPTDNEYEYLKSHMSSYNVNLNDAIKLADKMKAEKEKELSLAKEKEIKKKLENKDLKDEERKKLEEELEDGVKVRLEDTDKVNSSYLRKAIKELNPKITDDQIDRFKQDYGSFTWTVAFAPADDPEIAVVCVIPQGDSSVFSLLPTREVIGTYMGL

[3] = target: PBP2WT (Clostridioides difficile, UniProt A0A9R0CDX1); test: biochemical; type: binding
[4] = system: C. difficile; parameters: method as in PMID 29533126; settings: cited from earlier work

In the case of `O=C(O)CN(CCN(CC(=O)O)CC(=O)O)CC(=O)O` [EDTA], the PBP2 activity [1] is reported as “not affected”.

Molecule `Cc1cc(C)n2c1C=C1C=CC(CCC(=O)Nc3ccc(OCC(=O)N[C@@H]4C(=O)N5[C@@H]4SC(C)(C)[C@@H]5C(=O)O)cc3)=[N+]1[B-]2(F)F` [bocillin] has a Kd [2] of 16.7 ± 2.72 µM and a Kd [3] of 2.95 ± 0.72 µM.

B1: calprotectin: a protein secreted by the immune system in response to intestinal inflammation; chelator of divalent cations such as Ca2+ and Zn2+ (protein, UniProt P05109 1-93; P06702 1-114, looked up)
Protein S100-A8: MLTELEKALNSIIDVYHKYSLIKGNFHAVYRDDLKKLLETECPQYIRKKGADVWFKELDINTDGAVNFQEFLILVIKMGVAAHKKSHEESHKE
Protein S100-A9: MTCKMSQLERNIETIINTFHQYSVKLGHPDTLNQGEFKELVRKDLQNFLKKENKNEKVIEHIMEDLDTNADKQLSFEEFIMLMARLTWASHEKMHEGDEGPGHHHKPGLGEGTP
For B1, the “C. difficile growth (in words)” value [4] is listed as “inhibits C. difficile growth”.

Reference: paper PMC9334274, “A unique class of Zn^2+-binding serine-based PBPs underlies cephalosporin resistance and sporogenesis in Clostridioides difficile” (Nature Communications, 2022)
